Patent US8697096B2, “Tape preparation comprising etodolac in ionic liquid form” (priority 2007, dated 2014)

Legend:
[1] = Tissue concentration of etodolac by administration route (oral vs transdermal), leg muscle of rat; format: in vivo; settings: 12 mg/kg etodolac suspended in CMC, FIG. 8
Experimental: In the case of oral administration, four male SD rats (5 weeks old) are used as a group and 12 mg/kg of etodolac suspended in CMC is forced to be taken in by using a probe. The dose is fixed around about 1.1˜1.5 mg/rat. After a lapse of a certain period of time since the forced feeding, an animal is killed by blood removal under anesthesia. Later the leg was amputated, divided into skin and other tissues and the drug concentrations in the muscle tissue and plasma were assayed.
The applied area of the sample was adjusted so that transdermally available amount of etodolac was about 0.7 mg/rat when applied for 24 hours. After a lapse of a certain period of time since the application of the sample, an animal is killed by blood removal under anesthesia. Later the leg was amputated, divided into skin and other tissues and the drug concentrations in the muscle tissue and plasma were assayed.

Q: Which results are given for `CCc1cccc2c3c([nH]c12)C(CC)(CC(=O)O)OCC3` (stereo not drawn) [etodolac]?
A: drug-concentration in the muscle tissue [1]: not increased so much; pKa (physchem): 4.65

Q: Which pKa (physchem) does the source give for `CC(O)CN(CC(C)O)CC(C)O` (stereo not drawn) [triisopropanolamine] here?
A: The pKa was 8.03.
